# Measured values as given in patent US9150546B2, “Triazine derivative and pharmaceutical composition comprising the same” (SHIONOGI & CO., LTD., priority 2009, dated 2015).
# Target: human P2X3 receptor (Homo sapiens (Human), UniProt P56373)
# Assay: P2X3 receptor inhibition, ATP-evoked Fluo-3 fluorescence (FDSS 3000)
# Assay type: cell-based
# Details: C6BU-1 cell transfected with human P2X3 receptor gene
# Sequence of human P2X3 receptor (P56373 whole entry): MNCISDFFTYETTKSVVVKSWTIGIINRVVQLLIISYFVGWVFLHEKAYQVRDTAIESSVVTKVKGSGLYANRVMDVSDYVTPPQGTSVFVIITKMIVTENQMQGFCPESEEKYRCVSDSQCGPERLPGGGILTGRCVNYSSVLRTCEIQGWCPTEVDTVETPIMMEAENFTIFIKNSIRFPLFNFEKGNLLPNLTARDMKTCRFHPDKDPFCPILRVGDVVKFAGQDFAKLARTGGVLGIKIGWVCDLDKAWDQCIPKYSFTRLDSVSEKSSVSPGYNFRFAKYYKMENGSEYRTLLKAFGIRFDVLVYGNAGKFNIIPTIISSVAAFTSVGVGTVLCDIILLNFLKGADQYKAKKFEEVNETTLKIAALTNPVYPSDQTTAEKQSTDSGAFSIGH
row,Compound,IC50 [µM]
1,CSc1cccc(Nc2nc(=O)n(C(C)C)c(=O)n2Cc2ccc(F)cc2)c1 [I-130],0.953
2,CC(C)Oc1ccc(Nc2nc(=O)n(CCNC(=O)N(C)C)c(=O)n2Cc2ccc(Cl)cc2)cc1F [I-388],0.036
3,CC(C)Oc1ccc(Nc2nc(=O)n(CC(F)(F)C(=O)O)c(=O)n2Cc2ccc(Cl)cc2)cc1F [I-283],0.019
4,Cc1cc(/N=c2\[nH]c(=O)n(C[C@@H](C)C(=O)O)c(=O)n2Cc2ccc(Cl)cc2)ccc1OC(C)C [I-486],0.042
5,CNC(=O)Cn1c(=O)nc(Nc2ccc(OC(C)C)c(F)c2)n(Cc2ccc(Cl)cc2)c1=O [I-294],0.04
6,CCn1c(=O)nc(Nc2cccc(C(F)(F)F)c2)n(Cc2ccc(F)cc2)c1=O [I-138],0.619
7,CC(C)Oc1ccc(Nc2nc(=O)n(CCNC(=O)NCCO)c(=O)n2Cc2ccc(Cl)cc2)cc1F [I-390],0.067
8,CCCCc1ccc(Nc2nc(=O)n(CCO)c(=O)n2Cc2ccc(Cl)cc2)cc1 [I-344],0.128
9,Cc1ccc(Cn2c(=O)n(CC(C)(C)C(=O)O)c(=O)[nH]/c2=N\c2ccc(OC(C)C)c(F)c2)cc1F [I-413],0.099
10,COc1ccc(Nc2nc(=O)n(CCO)c(=O)n2Cc2ccc(Cl)cc2)cc1F [I-305],0.946
11,Cc1nc2cc(/N=c3\[nH]c(=O)n(CC(C)(C)C(=O)O)c(=O)n3Cc3ccc(Cl)cc3)ccc2o1 [I-497],0.458
12,CC(C)Oc1ccc(/N=c2\[nH]c(=O)n(CCC(=O)NCC#N)c(=O)n2Cc2ccc(Cl)cc2)cc1F [I-439],0.018
13,O=c1nc(Nc2ccc(OC3CCCC3)c(Cl)c2)n(Cc2ccc(Cl)cc2)c(=O)n1CCO [I-374],0.08
14,CC(C)Oc1ccc(/N=c2\[nH]c(=O)n(C[C@H](C)C(=O)O)c(=O)n2Cc2ccc(Cl)cc2)cc1F [I-456],0.008
15,O=c1nc(Nc2cccc(C(F)(F)F)c2)n(Cc2ccc(Cl)cc2)c(=O)n1CC(CO)CO [I-367],0.04
16,CCOc1ccc(Nc2nc(=O)n(CCO)c(=O)n2Cc2ccc(Cl)cc2)cc1 [I-307],0.25
17,CCOC(=O)C1(Cn2c(=O)[nH]/c(=N\c3ccc(OC(C)C)c(Cl)c3)n(Cc3ccc(Cl)cc3)c2=O)CC1 [I-423],0.004
18,CC(C)Oc1ccc(/N=c2\[nH]c(=O)n(C(C)C(=O)O)c(=O)n2Cc2ccc(Cl)cc2)cc1F (stereo not shown) [I-475],0.571
19,CCOc1ccc(/N=c2\[nH]c(=O)n(C[C@@H](C)C(=O)O)c(=O)n2Cc2ccc(Cl)cc2)cc1 [I-484],0.29
20,Cc1ccc(Cn2c(=O)n(CC(C)(C)C(=O)O)c(=O)[nH]/c2=N\c2ccc(OC(C)C)c(Cl)c2)cc1 [I-408],0.01
21,CC(C)(Cn1c(=O)[nH]/c(=N\c2ccc(O)c(Cl)c2)n(Cc2ccc(Cl)cc2)c1=O)C(=O)O [I-429],0.779
22,CCOC(=O)CCn1c(=O)nc(Nc2ccc(OC(C)C)c(Cl)c2)n(Cc2ccc(Cl)cc2)c1=O [I-354],0.008
23,COC(=O)C(C)(C)Cn1c(=O)[nH]/c(=N\c2ccc3oc(C)cc3c2)n(Cc2ccc(Cl)cc2)c1=O [I-489],0.01
24,CNC(=O)NCCn1c(=O)nc(Nc2ccc(OC(C)C)c(F)c2)n(Cc2ccc(Cl)cc2)c1=O [I-387],0.037

row,Compound,IC50 [µM]
1,Cc1ccc(Cn2c(Nc3cccc(C(F)(F)F)c3)nc(=O)n(C(C)C)c2=O)cc1 [I-021],0.197
2,Cc1cc(/N=c2\[nH]c(=O)n(CCCC(=O)O)c(=O)n2Cc2ccc(Cl)cc2)ccc1OC(C)C [I-503],0.05
3,Cc1ccc(Cn2c(=O)n(CCCC(=O)O)c(=O)[nH]/c2=N\c2ccc(OC(C)C)c(C)c2)cc1 [I-525],0.054
4,CC(C)Oc1ccc(Nc2nc(=O)n(CCO)c(=O)n2Cc2ccc([N+](=O)[O-])cc2)cc1F [I-347],0.251
5,COC(=O)Cn1c(=O)[nH]/c(=N\c2ccc(OC(C)C)c(F)c2)n(Cc2ccc(C)cc2)c1=O [I-410],0.044
6,CC(C)(Cn1c(=O)[nH]/c(=N\c2ccc(OC(F)F)cc2)n(Cc2ccc(Cl)cc2)c1=O)C(=O)O [I-543],0.172
7,CCn1ccc2cc(/N=c3\[nH]c(=O)n(CC(C)(C)C(=O)OC)c(=O)n3Cc3ccc(Cl)cc3)ccc21 [I-492],0.102
8,CC(C)Oc1ccc(Nc2nc(=O)n(CCC(=O)NCCO)c(=O)n2Cc2ccc(Cl)cc2)cc1F [I-352],0.036
9,CC(C)(Cn1c(=O)[nH]/c(=N\c2cccc(C(F)(F)F)c2)n(Cc2ccc(Cl)cc2)c1=O)C(=O)O [I-476],0.035
10,CC(C)Oc1ccc(Nc2nc(OCC(CO)CO)nc(=O)n2Cc2ccc(Cl)cc2)cc1F [II-008],0.943
11,COC(=O)C(C)(C)Cn1c(=O)[nH]/c(=N\c2ccc3c(ccn3CC(C)C)c2)n(Cc2ccc(Cl)cc2)c1=O [I-506],0.279
12,CC(C)Oc1ccc(/N=c2\[nH]c(=O)n(CC(=O)NCC(=O)O)c(=O)n2Cc2ccc(Cl)cc2)cc1F [I-400],0.044
13,O=c1nc(Nc2ccc(OC3CCOCC3)cc2)n(Cc2ccc(Cl)cc2)c(=O)n1CCO [I-324],0.309
14,CCOc1ccc(/N=c2\[nH]c(=O)n(C[C@@H](C)C(=O)O)c(=O)n2Cc2ccc(Cl)cc2)cc1C [I-485],0.198
15,CC(C)Oc1ccc(Nc2nc(=O)n(CC(N)=O)c(=O)n2Cc2ccc(Cl)cc2)cc1F [I-295],0.046
16,CC(C)Oc1ccc(/N=c2\[nH]c(=O)n(CC3(C(=O)O)CC3)c(=O)n2Cc2ccc(Cl)cc2)cc1Cl [I-425],0.016
17,CC(C)Oc1ccc(/N=c2\[nH]c(=O)n(Cc3ccccc3C(=O)O)c(=O)n2Cc2ccc(Cl)cc2)cc1F [I-459],0.039
18,CC(C)(Cn1c(=O)[nH]/c(=N\c2ccc3[nH]ccc3c2)n(Cc2ccc(Cl)cc2)c1=O)C(=O)O [I-478],0.629
19,CC(C)Oc1ccc(/N=c2\[nH]c(N3CCCC3=O)nc(=O)n2Cc2ccc(Cl)cc2)cc1Cl [II-012],0.568
20,COC(=O)C[C@H](C)n1c(=O)[nH]/c(=N\c2ccc(OC(C)C)c(C)c2)n(Cc2ccc(Cl)cc2)c1=O [I-524],0.06
21,CC(C)Oc1ccc(Nc2nc(=O)n(CC3(CO)CC3)c(=O)n2Cc2ccc(Cl)cc2)cc1F [I-335],0.007
22,O=c1nc(Nc2ccc(C(F)(F)F)c(F)c2)n(Cc2ccc(Cl)cc2)c(=O)n1CCO [I-315],0.183
23,CC(C)Oc1ccc(Nc2nc(=O)n(CCN(C)C)c(=O)n2Cc2ccc(Cl)cc2)cc1F [I-272],0.18
24,CC(C)Oc1ccc(Nc2nc(=O)n(CC(=O)N(C)C)c(=O)n2Cc2ccc(Cl)cc2)cc1F [I-293],0.351

row,Compound,IC50 [µM]
1,Cc1ccc(Cn2c(=O)n(C[C@H](C)C(=O)O)c(=O)[nH]/c2=N\c2ccc(OC(C)C)c(F)c2)cc1 [I-517],0.015
2,Cc1ccc(Cn2c(=O)n(CC(C)(C)C(=O)O)c(=O)[nH]/c2=N\c2ccc(OC(C)C)c(F)c2)cc1 [I-405],0.032
3,CC(C)n1c(=O)nc(Nc2ccc(Oc3ccccc3)cc2)n(Cc2ccc(Cl)cn2)c1=O [I-164],0.86
4,CC(C)Oc1ccc(/N=c2\[nH]c(=O)n(CC(=O)NCCO)c(=O)n2Cc2ccc(Cl)cc2)cc1Cl [I-437],0.006
5,CCOc1ccc(/N=c2\[nH]c(=O)n(CC(C)(C)C(=O)O)c(=O)n2Cc2ccc(Cl)cc2)cc1C [I-465],0.057
6,CCOc1ccc(/N=c2\[nH]c(=O)n(CC(C)(C)C(=O)O)c(=O)n2Cc2ccc(Cl)cc2)cc1Cl [I-446],0.02
7,O=c1nc(Nc2ccc(OC(F)F)cc2)n(Cc2ccc(Cl)cc2)c(=O)n1CCO [I-329],0.266
8,CC(C)Oc1ccc(/N=c2\[nH]c(=O)n(C[C@H](C)C(=O)O)c(=O)n2Cc2ccc(Cl)cc2)cc1Cl [I-461],0.009
9,CC(C)Oc1ccc(/N=c2\[nH]c(=O)n([C@@H](C)CC(=O)O)c(=O)n2Cc2ccc(Cl)cc2)cc1F [I-527],0.033
10,O=c1nc(Nc2ccc(OC(F)(F)F)cc2)n(Cc2ccc(Cl)cc2)c(=O)n1CCO [I-383],0.532
11,CC(C)Oc1ccc(/N=c2\[nH]c(=O)n(C[C@@H](C)C(=O)O)c(=O)n2Cc2ccc(Cl)cc2)cc1 [I-483],0.1
12,CC(C)Oc1ccc(Nc2nc(=O)n(CCCO)c(=O)n2Cc2ccc(Cl)cc2)cc1 [I-359],0.04
13,COC(=O)C[C@H](C)n1c(=O)[nH]/c(=N\c2ccc(OC(C)C)c(Cl)c2)n(Cc2ccc(Cl)cc2)c1=O [I-522],0.029
14,O=c1nc(Nc2ccc(Oc3ccccc3)cc2)n(Cc2ccc(Cl)cc2)c(=O)n1CCO [I-334],0.099
15,CC(C)Oc1ccc(/N=c2\[nH]c(=O)n(CCC(C)(C)C(=O)O)c(=O)n2Cc2ccc(Cl)cc2)cc1Cl [I-421],0.019
16,COC(=O)C(C)(C)Cn1c(=O)[nH]/c(=N\c2ccc(OC(C)C)c(Cl)c2)n(CC2CCCCCC2)c1=O [I-549],0.019
17,COC(=O)Cn1c(=O)nc(Nc2ccc(OC(C)C)c(F)c2)n(Cc2ccc(Cl)cc2)c1=O [I-338],0.053
18,CC(C)CNC(=O)c1ccc(Nc2nc(=O)n(C(C)C)c(=O)n2Cc2ccc(Cl)cc2)cc1 [I-256],0.867
19,CC(C)Oc1ccc(/N=c2\[nH]c(=O)n(CC(C)(C)C(=O)O)c(=O)n2CC2CCCCC2)cc1Cl [I-551],0.034
20,COC(=O)C(C)(C)Cn1c(=O)[nH]/c(=N\c2cccc(C(F)(F)F)c2)n(Cc2ccc(Cl)cc2)c1=O [I-471],0.024
21,CC(C)n1c(=O)nc(Nc2ccc(C(=O)NCC3CC3)cc2)n(Cc2ccc(Cl)cc2)c1=O [I-258],0.683
22,CCOc1nc(=O)n(Cc2ccc(Cl)cc2)/c(=N/c2ccc(OC(C)C)c(Cl)c2)[nH]1 [II-014],0.254
